Test results as given in patent US20080200454A1, “CARBON-LINKED TETRAHYDRO-PYRAZOLO-PYRIDINE MODULATORS OF CATHEPSIN S” (priority 2007, published 2008).
Read-outs that look alike come from different tables or passages of the source.

Molecular target: Recombinant human cathepsin S (CatS) (Homo sapiens, UniProt P25774)
Experiment: Recombinant human cathepsin S (CatS) inhibition assay, fluorogenic substrate Z-Valine-Valine-Arginine-AMC;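 note: Baculovirus-expressed CatS in pH 5.0 sodium acetate buffer with DTT and NaCl, fluorescence read each minute over 20 min, inhibition derived from rate slope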

Sequence of Recombinant human cathepsin S (CatS) (P25774 115-331): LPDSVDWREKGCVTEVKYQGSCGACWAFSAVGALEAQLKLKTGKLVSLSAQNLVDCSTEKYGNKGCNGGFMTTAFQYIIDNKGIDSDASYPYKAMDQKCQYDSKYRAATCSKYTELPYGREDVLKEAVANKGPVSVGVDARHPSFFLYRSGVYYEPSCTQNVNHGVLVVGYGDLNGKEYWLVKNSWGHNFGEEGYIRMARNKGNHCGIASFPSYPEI

Row | Compound | IC50 (CatS IC50) | further results
1 | NC(=O)N1CCc2c(c(-c3ccc(Cl)c(C#Cc4ccc(C(=O)NCCN5CCOCC5)cc4)c3)nn2CCCN2CCSCC2)C1 [Example 607, 3-[4-Chloro-3-({4-[(2-morpholin-4-ylethyl)carbamoyl]phenyl}ethynyl)phenyl]-1-(3-thiomorpholin-4-ylpropyl)-1,4,6,7-tetrahydro-5H-pyrazolo[4,3-c]pyridine-5-carboxamide] | 50 nM | 
2 | CS(=O)(=O)N1CCc2c(c(-c3ccc(Cl)c(C#Cc4ccc(C(=O)NCCN5CCOCC5)cc4)c3)nn2CCCN2CCCCC2)C1 [Example 608, 4-({2-Chloro-5-[5-(methylsulfonyl)-1-(3-piperidin-1-ylpropyl)-4,5,6,7-tetrahydro-1H-pyrazolo[4,3-c]pyridin-3-yl]phenyl}ethynyl)-N-(2-morpholin-4-ylethyl)benzamide] |  | IC50: 70 nM
3 | NC(=O)N1CCc2c(c(-c3ccc(Cl)c(C#Cc4ccc(C(=O)NC[C@@H]5CCCN5)cc4)c3)nn2CCCN2CCSCC2)C1 [Example 609, 3-{4-Chloro-3-[(4-{[(2S)-pyrrolidin-2-ylmethyl]carbamoyl}phenyl)ethynyl]phenyl}-1-(3-thiomorpholin-4-ylpropyl)-1,4,6,7-tetrahydro-5H-pyrazolo[4,3-c]pyridine-5-carboxamide] |  | IC50: 70 nM
4 | C[C@H]1COCCN1CCCn1nc(-c2ccc(Cl)c(C#Cc3ccc(C(=O)NC[C@@H]4CCCN4)cc3)c2)c2c1CCN(C(=O)C(N)=O)C2 [Example 610, 4-{[5-(5-[Amino(oxo)acetyl]-1-{3-[(3S)-3-methylmorpholin-4-yl]propyl}-4,5,6,7-tetrahydro-1H-pyrazolo[4,3-c]pyridin-3-yl)-2-chlorophenyl]ethynyl}-N-[(2S)-pyrrolidin-2-ylmethyl]benzamide] | 30 nM | 
5 | CS(=O)(=O)N1CCc2c(c(-c3ccc(Cl)c(C#Cc4ccc(C(=O)NC[C@@H]5CCCN5)cc4)c3)nn2CCCN2CCCCC2)C1 [Example 611, 4-({2-Chloro-5-[5-(methylsulfonyl)-1-(3-piperidin-1-ylpropyl)-4,5,6,7-tetrahydro-1H-pyrazolo[4,3-c]pyridin-3-yl]phenyl}ethynyl)-N-[(2S)-pyrrolidin-2-ylmethyl]benzamide] | 100 nM | 
6 | CNCCCNC(=O)c1ccc(C#Cc2cc(-c3nn(CCCN4CCSCC4)c4c3CN(C(N)=O)CC4)ccc2Cl)cc1 [Example 612, 3-{4-Chloro-3-[(4-{[3-(methylamino)propyl]carbamoyl}phenyl)ethynyl]phenyl}-1-(3-thiomorpholin-4-ylpropyl)-1,4,6,7-tetrahydro-5H-pyrazolo[4,3-c]pyridine-5-carboxamide] | 80 nM | 
7 | CNCCCNC(=O)c1ccc(C#Cc2cc(-c3nn(CCCN4CCOC[C@@H]4C)c4c3CN(C(=O)C(N)=O)CC4)ccc2Cl)cc1 [Example 613, 4-{[5-(5-[Amino(oxo)acetyl]-1-{3-[(3S)-3-methylmorpholin-4-yl]propyl}-4,5,6,7-tetrahydro-1H-pyrazolo[4,3-c]pyridin-3-yl)-2-chlorophenyl]ethynyl}-N-[3-(methylamino)propyl]benzamide] |  | IC50: 40 nM
8 | CNCCCNC(=O)c1ccc(C#Cc2cc(-c3nn(CCCN4CCCCC4)c4c3CN(S(C)(=O)=O)CC4)ccc2Cl)cc1 [Example 614, 4-({2-Chloro-5-[5-(methylsulfonyl)-1-(3-piperidin-1-ylpropyl)-4,5,6,7-tetrahydro-1H-pyrazolo[4,3-c]pyridin-3-yl]phenyl}ethynyl)-N-[3-(methylamino)propyl]benzamide] | 60 nM | 
9 | CN(C)Cc1cc(C#Cc2cc(-c3nn(CCCN4CCSCC4)c4c3CN(C(N)=O)CC4)ccc2Cl)ccc1Cl [Example 615, 3-[4-Chloro-3-({4-chloro-3-[(dimethylamino)methyl]phenyl}ethynyl)phenyl]-1-(3-thiomorpholin-4-ylpropyl)-1,4,6,7-tetrahydro-5H-pyrazolo[4,3-c]pyridine-5-carboxamide] | 30 nM | 
10 | C[C@H]1COCCN1CCCn1nc(-c2ccc(Cl)c(C#Cc3ccc(Cl)c(CN(C)C)c3)c2)c2c1CCN(C(=O)C(N)=O)C2 [Example 616, 2-(3-[4-Chloro-3-({4-chloro-3-[(dimethylamino)methyl]phenyl}ethynyl)phenyl]-1-{3-[(3S)-3-methylmorpholin-4-yl]propyl}-1,4,6,7-tetrahydro-5H-pyrazolo[4,3-c]pyridin-5-yl)-2-oxoacetamide] | 12 nM | 
11 | CN(C)Cc1cc(C#Cc2cc(-c3nn(CCCN4CCCCC4)c4c3CN(S(C)(=O)=O)CC4)ccc2Cl)ccc1Cl [Example 617, 1-[2-Chloro-5-({2-chloro-5-[5-(methylsulfonyl)-1-(3-piperidin-1-ylpropyl)-4,5,6,7-tetrahydro-1H-pyrazolo[4,3-c]pyridin-3-yl]phenyl}ethynyl)phenyl]-N,N-dimethylmethanamine] | 40 nM | 
12 | C[C@H]1COCCN1CCCn1nc(-c2ccc(Cl)c(C#Cc3ccc(CO)cc3)c2)c2c1CCN(C(=O)C(N)=O)C2 [Example 618, 2-[3-(4-Chloro-3-{[4-(hydroxymethyl)phenyl]ethynyl}phenyl)-1-{3-[(3S)-3-methylmorpholin-4-yl]propyl}-1,4,6,7-tetrahydro-5H-pyrazolo[4,3-c]pyridin-5-yl]-2-oxoacetamide] | 20 nM | 
13 | CC(C)NCc1cc(C#Cc2cc(-c3nn(CCCN4CCOC[C@@H]4C)c4c3CN(C(=O)C(N)=O)CC4)ccc2Cl)ccc1Cl [Example 619, 2-(3-{4-Chloro-3-[(4-chloro-3-{[(1-methylethyl)amino]methyl}phenyl)ethynyl]phenyl}-1-{3-[(3S)-3-methylmorpholin-4-yl]propyl}-1,4,6,7-tetrahydro-5H-pyrazolo[4,3-c]pyridin-5-yl)-2-oxoacetamide] | 20 nM | 
14 | C[C@@H]1COCCN1CCCn1nc(-c2ccc(Cl)c(C#Cc3ccc(CNCc4ccc(Cl)cc4)cc3)c2)c2c1CCN(C(=O)C(N)=O)C2 [Example 620, 2-(3-{4-Chloro-3-[(4-{[(4-chlorobenzyl)amino]methyl}phenyl)ethynyl]phenyl}-1-{3-[(3R)-3-methylmorpholin-4-yl]propyl}-1,4,6,7-tetrahydro-5H-pyrazolo[4,3-c]pyridin-5-yl)-2-oxoacetamide] |  | IC50: 150 nM
15 | (2S)-1-(4,4′-Bipiperidin-1-yl)-3-[3-{4-chloro-3-[3-(diethylamino)prop-1-yn-1-yl]phenyl}-5-(methylsulfonyl)-4,5,6,7-tetrahydro-1H-pyrazolo[4,3-c]pyridin-1-yl]propan-2-ol [Example 471] |  | IC50 (read-out: CatS IC50, Table 4, average of results obtained): 7420 nM
